For orientation: IC50 means the midpoint of a concentration-inhibition curve. Read a low IC50 as greater potency.

Drawing on BindingDB's records for doi:10.7270/Q25719HD (The Scripps Research Institute Molecular Screening Center, 2010), this text covers IC50 for two compounds.

The target of the test is T1, Cytochrome b-245 heavy chain (Homo sapiens, UniProt P04839).
T1 sequence (P04839 whole entry): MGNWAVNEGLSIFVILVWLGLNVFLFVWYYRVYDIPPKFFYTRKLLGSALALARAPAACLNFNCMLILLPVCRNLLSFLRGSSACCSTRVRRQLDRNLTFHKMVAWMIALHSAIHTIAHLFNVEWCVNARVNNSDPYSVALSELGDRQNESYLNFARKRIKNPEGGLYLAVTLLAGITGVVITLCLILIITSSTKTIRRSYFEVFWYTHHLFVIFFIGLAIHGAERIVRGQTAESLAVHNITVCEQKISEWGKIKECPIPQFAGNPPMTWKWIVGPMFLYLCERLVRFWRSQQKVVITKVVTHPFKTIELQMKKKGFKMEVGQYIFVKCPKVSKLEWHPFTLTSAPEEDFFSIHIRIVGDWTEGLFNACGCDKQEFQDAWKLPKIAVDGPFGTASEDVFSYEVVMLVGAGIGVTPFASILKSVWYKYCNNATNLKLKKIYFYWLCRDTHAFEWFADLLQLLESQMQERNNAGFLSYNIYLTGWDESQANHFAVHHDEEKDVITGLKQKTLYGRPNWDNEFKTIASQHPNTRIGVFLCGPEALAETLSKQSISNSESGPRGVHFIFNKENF
Description: PubChem AID 435013.

The compound `CN(C)c1ccc(CN=Nc2c(Cl)cncc2Cl)cc1` showed an IC50 of more than 10 µM.

Turning to `Oc1c(Br)cc(CN=Nc2c(Cl)cncc2Cl)cc1Br` [4-[[2-[3,5-bis(chloranyl)pyridin-4-yl]hydrazinyl]methylidene]-2,6-bis(bromanyl)cyclohexa-2,5-dien-1-one], the IC50 is more than 50 µM.
